The values that follow are results of earlier work, collected in patent US20070105848A1 (priority 2005, published 2007).

One data set relates to methemoglobinemia. As to conditions: i.v., 1 mg/kg body weight.
The subject of a further data set is adult humans. The following applies: one week to 19 months, 100 mg b.i.d. or t.i.d. orally or 100 mg i.v.
The target in data set [1] is Plasmodium falciparum glutathione reductase (Plasmodium falciparum, UniProt O15770).
Chain of Plasmodium falciparum glutathione reductase (O15770 47-546): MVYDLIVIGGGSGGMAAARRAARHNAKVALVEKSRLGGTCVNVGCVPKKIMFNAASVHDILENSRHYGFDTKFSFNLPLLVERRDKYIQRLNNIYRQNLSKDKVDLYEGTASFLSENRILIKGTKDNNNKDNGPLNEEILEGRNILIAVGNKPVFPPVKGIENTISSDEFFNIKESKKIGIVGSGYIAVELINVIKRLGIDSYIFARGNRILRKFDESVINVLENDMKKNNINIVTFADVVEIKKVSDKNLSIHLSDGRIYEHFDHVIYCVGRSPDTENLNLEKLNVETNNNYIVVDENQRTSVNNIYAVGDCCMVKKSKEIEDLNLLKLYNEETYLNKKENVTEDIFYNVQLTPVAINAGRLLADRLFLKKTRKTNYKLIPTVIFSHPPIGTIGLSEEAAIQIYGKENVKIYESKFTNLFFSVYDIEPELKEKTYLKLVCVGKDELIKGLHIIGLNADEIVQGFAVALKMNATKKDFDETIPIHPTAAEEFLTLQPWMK

Consider `CN(C)c1ccc2nc3ccc(N(C)C)cc3[s+]c2c1.[Cl-]` [Methylene blue, 3,7-bis(dimethylamino)-phenothiazin-5-ium chloride], for which, in the data set with methemoglobinemia, the treatment of methemoglobinemia entry is on record as “effective”. The “side effects on prolonged administration” value in the data set on adult humans was “minimal side effects”. In the data set on malaria, the antimalarial activity entry is “intrinsic antimalarial activity” and the chloroquine sensitization entry was “can act as a chloroquine sensitizer”. Moreover, the “inhibition of Plasmodium falciparum glutathione reductase” value in data set [1] is “selective inhibitor”.
